Article PMC10587869, “Deciphering Structural Determinants Distinguishing Active from Inactive Cell-Penetrating Peptides for Cytosolic mRNA Delivery” (Bioconjugate Chemistry, 2023)
Positions of bridges follow the written chain, without caps; N, C: chain ends. No end group written: not given here.

Assays:
[1] = Dynamic light scattering of peptide-mRNA nanoparticles; format: physicochemical; conditions: hLF-v1 mRNA polyplexes, context: upon polymerization; N/P not printed at the place; DLS 25 °C, no serum
Protocol: (§1) Peptide-mRNA polyplexes were formulated as previously described.[40],[41] In short, two separate stock solutions of mRNA and peptide were prepared in MQ and simultaneously dispensed with electronically dispensing pipettes (E4 Electronic Pipette, LTS E4-100XLS+, Mettler-Toledo Rainin, LLC, Oakland, CA, USA) at a flow rate of 11 mL min^–1. All polyplexes were formed at a concentration of at least 10-fold the final intended concentration for transfections.
The hydrodynamic diameter of the nanoparticles was measured at 25 °C by dynamic light scattering (DLS) using a Zetasizer Nano ZS (Malvern Instruments, Worcestershire, UK) equipped with a 4 mW He–Ne laser (633 nm) with a backscatter detection angle of 173°. At least 40 μL of 10 times concentrated nanoparticle solution was measured in a UV-cuvette (BrandTech Scientific, Essex, CT, USA, Cat. No. 759200).

[2] = test system: MC3T3 cells; test: eGFP protein expression after mRNA transfection, live-cell confocal microscopy; format: cell-based, murine; conditions: N/P 3, eGFP mRNA, 24 h post-transfection
Protocol: as §1
(§2) One day before mRNA transfections, 10 000 MC3T3 cells in 100 μL were seeded in 96-well plates (Greiner Bio-One Cat. No. 655180) or 20 000 cells in 200 μL in μ-slide eight-well chambers (Ibidi, Gräfelfing, Germany). These seeding densities ensured confluency between ∼70 and 90% on the day of transfection. mRNA transfections were performed by removing the complete medium from the wells and replacing it with mRNA nanoparticles diluted 10 times in complete medium. Cells were exposed to mRNA nanoparticles for 2 h at 37 °C, 5% CO2, in a humidified incubator. For some experiments, cells were stained with 200 μL of 1 μM CellTrace yellow (Thermo Fisher Scientific, Cat. No. C34567) directly after the nanoparticle incubation, according to the manufacturer’s instructions. Regardless of the tested N/P ratio or type of nanoparticle, mRNA inputs were equalized across conditions, resulting in 107 ng/well for luciferase assays in 96-well plate formats and 214 ng/well for confocal microscopy experiments. […] For untreated controls, complete cell culture medium was added and refreshed as often as in the experimental conditions.
Before microscopy, complete medium containing phenol red was replaced with an equal volume of phenol red-free and HEPES-formulated Opti-MEM (Gibco). The uptake of Cy5-eGFP mRNA-formulated nanoparticles was assessed 2 h post-transfection, and eGFP expression was assessed 24 h post-transfection. […] All laser lines were generated by a white-light laser, and emissions were detected with hybrid detectors. […]

[3] = test system: MC3T3 cells; test: Cellular uptake of Cy5-eGFP mRNA polyplexes, live-cell confocal microscopy; format: cell-based, murine
Protocol: as §1, §2
Before microscopy, complete medium containing phenol red was replaced with an equal volume of phenol red-free and HEPES-formulated Opti-MEM (Gibco). The uptake of Cy5-eGFP mRNA-formulated nanoparticles was assessed 2 h post-transfection, and eGFP expression was assessed 24 h post-transfection. Live-cell imaging was performed using a Leica TCS SP8 SMD (Leica Microsystems, Mannheim, Germany) with an HC PL APO CS2 63×/1.20 water objective and a temperature-controlled stage at 36.5 °C. eGFP was excited at 488 nm (emission: 500–550 nm). CellTrace yellow was excited at 555 nm (emission: 570–620 nm), and Cy5 was excited at 633 nm (emission: 650–690 nm). All laser lines were generated by a white-light laser, and emissions were detected with hybrid detectors. All channels were sequentially acquired to avoid crosstalk at a bit depth of 12. Except for the LMM eGFP conditions (reduced gain), equal acquisition settings (pixel size, pinhole, laser power, and gain) per fluorophore were used within the experiments.
Quantification of the Cy5 fluorescence was performed as previously described.[59],[60] In brief, five separate images (unless stated otherwise) containing approximately 10 cells per image were analyzed using ImageJ (version 1.53f51). A square mask of 184.52 μm^2 was used to quantify the raw integrated density (sum of all pixels in a region of interest). Importantly, cell confluencies ranged from ∼80–95%, ensuring minimal impact of cell density on total fluorescence values. The brightness and contrast of the images were adjusted to find a cell-free region to determine background fluorescence. Then, a circle was drawn to measure the background fluorescence. To obtain the corrected total cellular fluorescence (CTCF), the area (in pixels) was multiplied by the mean gray value of the background and subsequently subtracted from the raw integrated density.

[4] = Heparin-mediated polyplex decomplexation assay (QuantiFluor RNA); format: physicochemical; conditions: N/P 1 and 3, low or high heparin amounts; Figure S8
Protocol: For testing the stability of mRNA polyplexes, a polyanion decomplexation assay, mediated by the polyanionic heparin (heparin sodium salt from porcine intestinal mucosa, Cat. No. H3149-100 KU, Sigma-Aldrich) was performed. mRNA polyplexes were freshly prepared with uncapped SecNLuc mRNA (RIBOPRO), as described in the section mRNA Nanoparticle Formation. Following polyplex formation, all samples were incubated for at least 30 min at room temperature. Importantly, separate stock solutions of heparin were made to ensure an equal volume across conditions regardless of heparin concentration. For decomplexation, 5 μL of 10× polyplexes were diluted in RNase-free TE-buffer at pH 7.5 (Promega, Cat. No. E260A) supplemented with an equal volume of heparin across conditions to a total volume of 50 μL in a 384-well plate (Greiner Bio-One, Cat. No. 781101). All samples were quickly spun down before incubation at 37 °C for 90 min. The QuantiFluor RNA System (Promega, Cat. No. E3310) was used with a 1:2000 dilution of RNA-binding dye for all tested conditions to detect released mRNA. For quantification, a calibration curve with uncapped SecNLuc mRNA was made, spanning from 0.19 ng mRNA/well to 50 ng mRNA/well. For detection of released mRNA, the dye was excited at 485 nm, and emission was collected at 535 nm using the VICTOR X3Multilabel Plate Reader (PerkinElmer)
Data analysis was performed using GraphPad Prism (GraphPad Software, version 8.4.2, San Diego, CA, USA). Data are presented as means ± standard deviation (SD) unless stated otherwise. Means were calculated by first averaging the technical replicates, for which outliers were identified using Grubbs’ test, followed by averaging the biological replicates. Before statistical analysis, all data were checked for normal distribution with a Shapiro–Wilk test. Statistical analysis was done using one- or two-way analysis of variance (ANOVA). Multiple comparisons were corrected using Tukey’s test with 95% confidence intervals. For the mRNA standard curve used in heparin decomplexation assays, the coefficient of variation was determined both in the standards and in samples and was ≤20%. The standard curve was fitted using a sigmoidal four-parameter logistic curve. The standard curve was back fitted with ±10% accuracy to verify the correctness of the fit. The signals from samples were blanked with the appropriate solution (TE buffer) before calculating interpolations. p > 0.05 was considered not significant, and p values were reported using the GraphPad Prism style (*p ≤ 0.05, **p ≤ 0.01, ***p ≤ 0.001, and ****p ≤ 0.0001).

[5] = test system: MC3T3 cells; test: Luciferase expression after SecNLuc mRNA transfection (Nano-Glo); format: cell-based, murine
Protocol: as §1
One day before mRNA transfections, 10 000 MC3T3 cells in 100 μL were seeded in 96-well plates (Greiner Bio-One Cat. No. 655180) or 20 000 cells in 200 μL in μ-slide eight-well chambers (Ibidi, Gräfelfing, Germany). These seeding densities ensured confluency between ∼70 and 90% on the day of transfection. mRNA transfections were performed by removing the complete medium from the wells and replacing it with mRNA nanoparticles diluted 10 times in complete medium. Cells were exposed to mRNA nanoparticles for 2 h at 37 °C, 5% CO2, in a humidified incubator. […]
The extent of luciferase production was determined using the Nano-Glo Luciferase Assay (Promega, Madison, WI, USA, Cat No. N1130) according to the manufacturer’s instructions. […] Luminescence was measured after briefly shaking the plate using the VICTOR X3Multilabel Plate Reader (PerkinElmer, Waltham, MA, USA).

[6] = test system: HeLa cells; test: as above; format: cell-based, human

Sequence | monodisperse particle size by DLS [1] | eGFP protein expression [2] | effect of oligomerization on uptake ([3]; 2 h incubation, Cy5-labeled mRNA, polymerized vs monomeric, Figure 5, Figure S5) | uptake of Cy5-labeled mRNA polyplexes of amphipathic hLF variants ([3]; 2 h incubation, live-cell confocal microscopy, serum present, Figure 5, four independent experiments) | difference in heparin decomplexation [4] | luciferase expression as fraction of PF14-induced expression ([5]; MC3T3, N/P 5) | luciferase expression ([6]; N/P 3, compared to untreated) | luciferase expression higher than PF14 ([6]; N/P 5) | luciferase activity ([5]; MC3T3, independent of the N/P ratio (3 or 5)) | ratio of Poly hLF-x vs Mono-hLF-x, Corrected Total Cellular Fluorescence (Cy5) ([3]; Cy5-eGFP mRNA polyplexes, 2 h post-transfection, n = 5 fields of view per condition) | cellular uptake of Cy5-labeled eGFP mRNA ([3]; N/P 3 polyplexes (LMM lipoplexes), 2 h post-transfection, complete medium with 10% FBS, confocal, Figure 1, five independent experiments)
KCFQWLRNLRKVRALLVSCLKR [hLF-v1, amphipathic hLF variant with PF14 motifs and the same cationic amino acids as hLF-WT] | 72 ± 2.1 nm | fewer cells were positive for eGFP expression than for PF14 | no benefit for uptake | performed the worst and tended to aggregate upon polymerization |  |  |  |  |  |  | 
KCFQWLRNLRKVRALLVSCLKR (disulfide 2-19 (inferred)) [poly hLF-v1, polymeric hLF-v1] |  | successful delivery |  |  | no difference | approximately half | significant luciferase expression | ~5% |  |  | 
KCFQWQRNMRKVRGPPVSCIKR [hLF-WT] |  | no expression |  |  |  |  |  |  | no activity | 2.33 x | only little uptake
